# Results from publication PMC12858467, “In vitro toxicokinetics and metabolic profiling of methoxycathinones and methylthiocathinones using human liver systems and hyphenated mass spectrometry” (Archives of Toxicology, 2025).
# How the values were obtained:
# [1] = test system: pooled human liver S9 fraction (pHLS9) and HepaRG cells; test: In vitro metabolism by pHLS9 and HepaRG cells (LC-HRMS/MS metabolite identification); assay type: in vitro ADME; conditions: 25 µM substrate
# [2] = test system: plasma proteins (pooled human blood plasma); test: In vitro plasma protein binding (ultrafiltration, Centrifree); assay type: in vitro ADME
# Description: (§1) PPB was investigated according to a previous study with minor modifications (Kroesen et al. [2025]). Fresh and pooled human blood plasma (450 µL) was spiked with 50 µL of a 5 µM methanolic solution of 4MeO-NE-BP, 4MeO-αP-BP, 4MeO-αP-VP, 4MeS-NE-BP, 4MeS-αP-BP, or 4MeS-αMor-PrP. The mixture was incubated for 30 min at 37 °C and with gentle shaking at 200 rpm. […] The Centrifree devices were centrifuged for 35 min at 1600 × g to obtain 100 µL of the ultrafiltrate (UF). […] Experiments were performed in quadruplicate. Fraction unbound (fu) and PPB were determined by comparing the area ratios of the compound and trimipramine-d3 as an internal standard in the UF and GA using the following equations:1 fu=peak area ratiocompoundUF/ISUF/peak area ratiocompoundGA/ISGA 2 PPB[\%]=1-fu∗100.
# [3] = as above; assay type: in vitro ADME; conditions: human, pooled human blood plasma, 30 min, 37 °C, ultrafiltration, read-out: fu (unbound fraction)
# Description: as §1
# [4] = test system: dopamine and serotonin transporters; set-up: method as in Wojcieszak et al. [2021]; conditions: ref Wojcieszak et al. [2021]; cited from earlier work
# [5] = test system: pooled human liver S9 fraction (pHLS9); test: Incubations using pooled human liver S9 fraction; conditions: 25 µM parent, 60 and 360 min
# Description: In short, 25 μg/mL alamethicin (UGT reaction mix B), pHLS9 (2 mg microsomal protein/mL), 2.5 mM isocitrate, 0.8 U/mL isocitrate dehydrogenase, 100 U/mL superoxide dismutase, 0.6 mM NADP^+, and 2.5 mM Mg^2+ were preincubated for 10 min at 37 °C. Then, 2.5 mM UDP-glucuronic acid (UGT reaction mix A), 40 µM PAPS, 1.2 mM SAM, 1 mM DTT, and 10 mM GSH were added. The reaction was started by adding the substrate (25 µM each, final), resulting in a final incubation volume of 150 µL. MDMA or quetiapine (25 µM and 250 µM final concentrations) was incubated as positive controls. […] Incubations were performed in triplicate and organic solvent in the incubation mixture was below 1% (Chauret et al. [1998]). After an incubation time of 60 and 360 min, aliquots (50 µL) were transferred to a new reaction tube. The reaction was stopped with 30 µL acetonitrile (−20 °C) containing 2.5 µM trimipramine-d3 as an internal standard. Samples were vortexed, stored at −20 °C for 30 min, and centrifuged for 2 min at 18,407 × g. 70 µL of the supernatant were transferred to autosampler vials and 5 µL was injected onto the LC–HRMS/MS system.
# HepaRG cells = test: Incubations using HepaRG cells; conditions: 25 µM parent, 24 h
# Description: Cell incubations were performed in a monolayer assay (Kroesen et al. [2025]) and in accordance with the manufacturer’s instructions.
# All incubations were performed in triplicate, with each well containing 0.5% (v/v) DMSO. Following incubation, 50 µL of the medium supernatant was transferred to a new reaction tube and precipitated with 30 µL of acetonitrile cooled to −20 °C, containing 2.5 µM trimipramine-d3 as an internal standard. […] The mixture was vortexed and centrifuged for 2 min at 18,407 × g. A volume of 70 µL of the supernatant was transferred into an autosampler vial and 5 µL was injected onto the LC–HRMS/MS system.
# HepaRG cells were thawed and resuspended in 13.5 mL (~ 740,000 cells/mL) thaw
# and seed medium at 37 °C. Thaw and seed medium consisted of Williams E medium,
# 100 U/mL penicillin, 100 µg/mL streptomycin, GlutaMAX, and HPRG670 supplement.
# Cells were handled under sterile conditions using a laminar flow bench class II (Thermo
# Scientific, TF, Schwerte, Germany). Aliquots of 100 µL cell suspension were seeded
# on collagen-coated 96-well plates (~ 74,000 cells/well). Evaporation was minimized by
# filling the outer wells with 100 µL thaw and seed medium. Cells were preincubated for
# 4 h in an incubator (Binder, Tuttlingen, Germany) at 37 °C, 95 % air humidity, and 5 %
# CO2. After preincubation, 50 µL of the thaw and seed medium was replaced with 50 µL
# solution of each cathinone (25 µM) in thaw and seed medium, followed by an
# incubation for 24 h at 37 °C, 95 % air humidity, and 5 % CO2 atmosphere.
# A Thermo Fisher ( TF, Dreieich, Germany) Dionex UltiMate 3000 RS pump consisting
# of a degasser, a quaternary pump, and an autosampler, coupled to a TF Q Exactive
# Plus system equipped with a heated electrospray ionization (HESI)-II source were
# used. A mass calibration was done according to the manufacturer's recommendations
# using external mass calibration prior to analysis. Gradient elution was performed on a
# TF Accucore PhenylHexyl column (100 mm x 2.1 mm, 2.6 μm) with a 2 mM aqueous
# ammonium formate solution containing 0.1 % (v/v) formic acid (pH 3, eluent A) and 2
# mM ammonium formate solution in acetonitrile/methanol (50:50, v/v) containing 0.1 %
# (v/v) formic acid, and 1 % (v/v) water (eluent B). The gradient was stepped as follows:
# hold 99 % A. Initial flow rate from 0–9.5 min was 500 μL/min and final flow rate was
# 800 μL/min from 9.5–11.5 min. Mass spectrometry was performed using full scan data
# and a subsequent data-dependent acquisition (DDA) with priority to mass-to-charge
# ratios (m/z) of parent compounds and their expected metabolites. The inclusion list
# contained m/z values of likely formed metabolites such as O- or S-desmethyl, hydroxy,
# and oxo reduction metabolites (phase I) as well as sulfates, glucuronides (phase II),
# and combinations thereof.
# TF Xcalibur Qual Browser software […]
# CYP2D6 = molecular target: T1, CYP2D6 (Homo sapiens, UniProt P10635); test: Monooxygenases activity screening, CYP2D6; assay type: in vitro ADME; set-up: key to one-step metabolite detected in CYP2D6 incubation: +, detected; -, not detected; conditions: substrate 4MeS-NE-BP 25 µM, 30 min, 37 °C; Table S3.4
# T1 construct: purchased Discovery Life Sciences (Huntsville, LA, USA); host or cells: baculovirus-infected insect cells (microsomes, Supersomes)
# Description: (§2) For incubations with CYP2A6 or CYP2C9, phosphate buffer was replaced with 90 mM Tris buffer, according to the manufacturer’s guideline. […] All incubations were done in duplicate and concentrations were fixed. Verapamil (25 µM) was incubated as a positive control.
# CYP2E1 = molecular target: T2, CYP2E1 (Homo sapiens, UniProt P05181); test: Monooxygenases activity screening, CYP2E1; assay type: in vitro ADME; set-up: key: +, detected; -, not detected; conditions: substrate 4MeS-NE-BP 25 µM, 30 min, 37 °C; Table S3.4
# T2 construct: purchased Discovery Life Sciences (Huntsville, LA, USA); host or cells: baculovirus-infected insect cells (microsomes, Supersomes)
# Description: as §2
# CYP2A6 = molecular target: T3, CYP2A6 (Homo sapiens, UniProt P11509); test: Monooxygenases activity screening, CYP2A6; assay type: in vitro ADME; set-up: key: +, detected; -, not detected; conditions: substrate 4MeS-NE-BP 25 µM, 30 min, 37 °C; Table S3.4
# T3 construct: purchased Discovery Life Sciences (Huntsville, LA, USA); host or cells: baculovirus-infected insect cells (microsomes, Supersomes)
# T3 sequence (P11509 1-494): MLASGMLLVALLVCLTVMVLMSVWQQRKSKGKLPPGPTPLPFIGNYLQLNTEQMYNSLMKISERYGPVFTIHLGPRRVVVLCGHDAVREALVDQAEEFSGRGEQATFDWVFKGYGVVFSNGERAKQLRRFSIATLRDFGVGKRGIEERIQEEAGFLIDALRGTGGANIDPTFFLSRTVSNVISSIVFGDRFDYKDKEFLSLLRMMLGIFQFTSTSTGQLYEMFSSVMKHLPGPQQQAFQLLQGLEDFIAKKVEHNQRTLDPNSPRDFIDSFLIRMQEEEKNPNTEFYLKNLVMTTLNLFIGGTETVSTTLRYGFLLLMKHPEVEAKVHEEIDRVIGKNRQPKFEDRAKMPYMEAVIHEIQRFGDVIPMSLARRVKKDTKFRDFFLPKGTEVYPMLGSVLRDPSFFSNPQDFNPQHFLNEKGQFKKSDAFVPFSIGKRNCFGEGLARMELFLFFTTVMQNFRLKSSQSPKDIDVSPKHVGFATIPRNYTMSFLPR
# Description: as §2
# CYP2C9 = molecular target: T4, CYP2C9 (Homo sapiens, UniProt P11712); test: Monooxygenases activity screening, CYP2C9; assay type: in vitro ADME; set-up: key: +, detected; -, not detected; conditions: substrate 4MeS-NE-BP 25 µM, 30 min, 37 °C; Table S3.4
# T4 construct: purchased Discovery Life Sciences (Huntsville, LA, USA); host or cells: baculovirus-infected insect cells (microsomes, Supersomes)
# Description: as §2
# CYP3A4 = molecular target: T5, CYP3A4 (Homo sapiens, UniProt P08684); test: Monooxygenases activity screening, CYP3A4; assay type: in vitro ADME; set-up: key: +, detected; -, not detected; conditions: substrate 4MeS-NE-BP 25 µM, 30 min, 37 °C; Table S3.4
# T5 construct: purchased Discovery Life Sciences (Huntsville, LA, USA); host or cells: baculovirus-infected insect cells (microsomes, Supersomes)
# Description: as §2
# CYP2C8 = molecular target: T6, CYP2C8 (Homo sapiens, UniProt P10632); test: Monooxygenases activity screening, CYP2C8; assay type: in vitro ADME; set-up: key: +, detected; -, not detected; conditions: substrate 4MeS-NE-BP 25 µM, 30 min, 37 °C; Table S3.4
# T6 construct: purchased Discovery Life Sciences (Huntsville, LA, USA); host or cells: baculovirus-infected insect cells (microsomes, Supersomes)
# T6 sequence (P10632 1-490): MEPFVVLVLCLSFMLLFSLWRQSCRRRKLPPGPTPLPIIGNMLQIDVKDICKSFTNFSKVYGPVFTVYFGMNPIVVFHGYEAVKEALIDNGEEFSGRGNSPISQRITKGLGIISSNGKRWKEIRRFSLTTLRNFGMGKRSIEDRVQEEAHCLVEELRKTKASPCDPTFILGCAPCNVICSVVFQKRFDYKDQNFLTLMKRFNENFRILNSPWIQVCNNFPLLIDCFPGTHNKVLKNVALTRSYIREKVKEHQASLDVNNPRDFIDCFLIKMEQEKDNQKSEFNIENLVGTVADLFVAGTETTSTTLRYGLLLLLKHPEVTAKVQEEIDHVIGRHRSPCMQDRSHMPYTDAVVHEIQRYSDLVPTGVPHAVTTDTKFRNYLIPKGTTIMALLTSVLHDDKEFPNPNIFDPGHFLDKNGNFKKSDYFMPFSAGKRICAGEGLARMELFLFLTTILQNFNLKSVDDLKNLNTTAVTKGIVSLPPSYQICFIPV
# Description: as §2
# CYP2C19 = molecular target: T7, CYP2C19 (Homo sapiens, UniProt P33261); test: Monooxygenases activity screening, CYP2C19; assay type: in vitro ADME; set-up: key: +, detected; -, not detected; conditions: substrate 4MeS-NE-BP 25 µM, 30 min, 37 °C; Table S3.4
# T7 construct: purchased Discovery Life Sciences (Huntsville, LA, USA); host or cells: baculovirus-infected insect cells (microsomes, Supersomes)
# Description: as §2
# CYP3A5 = molecular target: T8, CYP3A5 (Homo sapiens, UniProt P20815); test: Monooxygenases activity screening, CYP3A5; assay type: in vitro ADME; set-up: key: +, detected; -, not detected; conditions: substrate 4MeS-NE-BP 25 µM, 30 min, 37 °C; Table S3.4
# T8 construct: purchased Discovery Life Sciences (Huntsville, LA, USA); host or cells: baculovirus-infected insect cells (microsomes, Supersomes)
# Description: as §2
# CYP2B6 = molecular target: T9, CYP2B6 (Homo sapiens, UniProt P20813); test: Monooxygenases activity screening, CYP2B6; assay type: in vitro ADME; set-up: key: +, detected; -, not detected; conditions: substrate 4MeS-NE-BP 25 µM, 30 min, 37 °C; Table S3.4
# T9 construct: purchased Discovery Life Sciences (Huntsville, LA, USA); host or cells: baculovirus-infected insect cells (microsomes, Supersomes)
# T9 sequence (P20813 1-491): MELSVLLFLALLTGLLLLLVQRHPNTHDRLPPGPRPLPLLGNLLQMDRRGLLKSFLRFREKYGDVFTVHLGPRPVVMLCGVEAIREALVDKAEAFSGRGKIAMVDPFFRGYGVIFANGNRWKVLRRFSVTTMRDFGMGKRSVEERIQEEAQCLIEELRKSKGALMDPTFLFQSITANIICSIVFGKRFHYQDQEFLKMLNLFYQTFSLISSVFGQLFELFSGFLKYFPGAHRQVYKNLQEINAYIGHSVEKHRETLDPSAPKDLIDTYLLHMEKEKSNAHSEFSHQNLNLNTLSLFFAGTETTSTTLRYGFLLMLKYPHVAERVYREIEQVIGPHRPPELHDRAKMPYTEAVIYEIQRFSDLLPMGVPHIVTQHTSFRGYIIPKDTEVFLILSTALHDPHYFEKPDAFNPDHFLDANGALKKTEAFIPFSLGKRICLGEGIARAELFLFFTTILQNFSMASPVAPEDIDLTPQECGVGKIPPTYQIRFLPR
# Description: as §2
# CYP1A2 = molecular target: T10, CYP1A2 (Homo sapiens, UniProt P05177); test: Monooxygenases activity screening, CYP1A2; assay type: in vitro ADME; set-up: key: +, detected; -, not detected; conditions: substrate 4MeS-NE-BP 25 µM, 30 min, 37 °C; Table S3.4
# T10 construct: purchased Discovery Life Sciences (Huntsville, LA, USA); host or cells: baculovirus-infected insect cells (microsomes, Supersomes)
# T10 sequence (P05177 1-516): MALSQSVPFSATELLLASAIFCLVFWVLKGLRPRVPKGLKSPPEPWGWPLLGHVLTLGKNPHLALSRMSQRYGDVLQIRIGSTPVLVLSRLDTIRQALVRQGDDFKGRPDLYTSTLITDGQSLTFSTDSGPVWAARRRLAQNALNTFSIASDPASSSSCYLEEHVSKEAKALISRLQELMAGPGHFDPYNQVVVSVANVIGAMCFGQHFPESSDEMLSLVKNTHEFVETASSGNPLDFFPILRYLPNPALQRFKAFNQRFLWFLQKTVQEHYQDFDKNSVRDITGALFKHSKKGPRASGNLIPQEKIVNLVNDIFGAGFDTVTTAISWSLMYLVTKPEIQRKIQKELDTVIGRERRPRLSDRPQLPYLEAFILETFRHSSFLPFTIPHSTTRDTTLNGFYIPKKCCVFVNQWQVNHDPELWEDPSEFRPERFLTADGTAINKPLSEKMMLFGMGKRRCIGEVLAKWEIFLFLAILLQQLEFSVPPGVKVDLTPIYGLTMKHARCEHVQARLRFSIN
# Description: as §2
# [6] = molecular target: T11, flavin-containing monooxygenase 3 (FMO3) (Homo sapiens, UniProt P31513); test: Monooxygenases activity screening, FMO3; assay type: in vitro ADME; set-up: key: +, detected; -, not detected; conditions: substrate 4MeS-NE-BP 25 µM, 30 min, 37 °C; Table S3.4
# T11 construct: purchased Discovery Life Sciences (Huntsville, LA, USA); host or cells: baculovirus-infected insect cells (microsomes, Supersomes)
# T11 sequence (P31513 1-532): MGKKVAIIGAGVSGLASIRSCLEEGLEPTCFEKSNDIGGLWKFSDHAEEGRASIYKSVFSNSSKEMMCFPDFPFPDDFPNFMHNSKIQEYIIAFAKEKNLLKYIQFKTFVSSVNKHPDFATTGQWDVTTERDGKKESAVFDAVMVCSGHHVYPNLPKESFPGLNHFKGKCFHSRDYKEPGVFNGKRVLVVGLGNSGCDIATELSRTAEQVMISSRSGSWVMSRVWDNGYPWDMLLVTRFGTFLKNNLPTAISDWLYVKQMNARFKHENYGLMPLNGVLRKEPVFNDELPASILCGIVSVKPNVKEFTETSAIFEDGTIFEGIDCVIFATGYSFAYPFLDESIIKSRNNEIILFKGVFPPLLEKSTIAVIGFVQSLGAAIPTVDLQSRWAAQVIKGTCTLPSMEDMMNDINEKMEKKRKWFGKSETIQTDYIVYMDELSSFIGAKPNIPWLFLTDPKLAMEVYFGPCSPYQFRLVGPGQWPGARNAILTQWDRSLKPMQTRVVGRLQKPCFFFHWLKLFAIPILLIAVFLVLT
# Description: as §2
# T5 sequence (P08684 whole entry): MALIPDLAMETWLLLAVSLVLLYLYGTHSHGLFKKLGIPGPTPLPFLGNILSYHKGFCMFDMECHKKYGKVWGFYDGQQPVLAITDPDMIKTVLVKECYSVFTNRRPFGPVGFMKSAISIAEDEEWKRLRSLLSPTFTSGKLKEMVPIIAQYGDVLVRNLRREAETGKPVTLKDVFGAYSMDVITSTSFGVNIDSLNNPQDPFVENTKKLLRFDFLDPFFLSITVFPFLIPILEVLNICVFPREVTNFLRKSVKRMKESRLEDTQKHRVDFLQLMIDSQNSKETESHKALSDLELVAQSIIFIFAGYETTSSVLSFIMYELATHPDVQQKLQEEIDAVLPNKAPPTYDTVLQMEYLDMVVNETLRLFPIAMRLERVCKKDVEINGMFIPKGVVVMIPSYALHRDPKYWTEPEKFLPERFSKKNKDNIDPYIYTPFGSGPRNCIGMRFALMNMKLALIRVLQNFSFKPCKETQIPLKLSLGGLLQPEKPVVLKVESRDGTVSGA
# T8 sequence (P20815 whole entry): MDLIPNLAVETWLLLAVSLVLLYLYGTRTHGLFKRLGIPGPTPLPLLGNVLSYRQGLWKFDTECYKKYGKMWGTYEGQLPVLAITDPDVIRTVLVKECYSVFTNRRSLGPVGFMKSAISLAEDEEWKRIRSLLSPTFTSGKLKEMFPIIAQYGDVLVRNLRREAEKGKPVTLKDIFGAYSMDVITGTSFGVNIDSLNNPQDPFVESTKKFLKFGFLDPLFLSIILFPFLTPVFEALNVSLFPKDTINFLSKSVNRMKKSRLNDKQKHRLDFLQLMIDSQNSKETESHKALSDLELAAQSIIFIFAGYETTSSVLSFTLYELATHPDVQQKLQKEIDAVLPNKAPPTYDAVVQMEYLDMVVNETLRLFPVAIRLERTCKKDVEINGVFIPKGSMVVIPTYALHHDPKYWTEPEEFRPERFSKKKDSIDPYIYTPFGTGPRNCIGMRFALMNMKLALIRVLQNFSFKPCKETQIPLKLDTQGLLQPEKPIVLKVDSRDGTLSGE
# T2 sequence (P05181 whole entry): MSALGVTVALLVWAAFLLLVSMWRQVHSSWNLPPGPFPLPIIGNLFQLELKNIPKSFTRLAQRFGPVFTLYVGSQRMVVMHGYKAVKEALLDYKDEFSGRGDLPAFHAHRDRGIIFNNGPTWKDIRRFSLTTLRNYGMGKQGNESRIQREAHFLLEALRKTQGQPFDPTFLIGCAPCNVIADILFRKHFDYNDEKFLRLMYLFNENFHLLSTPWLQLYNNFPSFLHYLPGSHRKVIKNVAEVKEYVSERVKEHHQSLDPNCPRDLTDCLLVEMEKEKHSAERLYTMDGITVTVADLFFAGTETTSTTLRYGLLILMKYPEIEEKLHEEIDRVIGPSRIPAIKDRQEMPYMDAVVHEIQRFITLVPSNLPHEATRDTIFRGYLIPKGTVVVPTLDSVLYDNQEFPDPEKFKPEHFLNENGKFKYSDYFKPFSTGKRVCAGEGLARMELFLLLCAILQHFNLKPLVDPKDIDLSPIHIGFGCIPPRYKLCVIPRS
# T4 sequence (P11712 whole entry): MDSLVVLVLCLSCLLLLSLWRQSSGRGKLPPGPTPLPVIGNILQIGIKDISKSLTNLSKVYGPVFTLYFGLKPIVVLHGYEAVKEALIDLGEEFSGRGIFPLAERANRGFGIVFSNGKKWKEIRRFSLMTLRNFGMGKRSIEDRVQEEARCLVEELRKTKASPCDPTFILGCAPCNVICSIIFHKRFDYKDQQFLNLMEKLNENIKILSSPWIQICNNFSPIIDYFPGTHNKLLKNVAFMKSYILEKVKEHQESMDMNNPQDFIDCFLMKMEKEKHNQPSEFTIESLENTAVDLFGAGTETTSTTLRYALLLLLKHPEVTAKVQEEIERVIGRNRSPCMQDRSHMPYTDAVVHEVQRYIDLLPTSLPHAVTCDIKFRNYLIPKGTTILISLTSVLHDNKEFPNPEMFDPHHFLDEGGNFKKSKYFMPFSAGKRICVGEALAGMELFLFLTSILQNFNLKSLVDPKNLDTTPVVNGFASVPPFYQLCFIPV
# T1 sequence (P10635 whole entry): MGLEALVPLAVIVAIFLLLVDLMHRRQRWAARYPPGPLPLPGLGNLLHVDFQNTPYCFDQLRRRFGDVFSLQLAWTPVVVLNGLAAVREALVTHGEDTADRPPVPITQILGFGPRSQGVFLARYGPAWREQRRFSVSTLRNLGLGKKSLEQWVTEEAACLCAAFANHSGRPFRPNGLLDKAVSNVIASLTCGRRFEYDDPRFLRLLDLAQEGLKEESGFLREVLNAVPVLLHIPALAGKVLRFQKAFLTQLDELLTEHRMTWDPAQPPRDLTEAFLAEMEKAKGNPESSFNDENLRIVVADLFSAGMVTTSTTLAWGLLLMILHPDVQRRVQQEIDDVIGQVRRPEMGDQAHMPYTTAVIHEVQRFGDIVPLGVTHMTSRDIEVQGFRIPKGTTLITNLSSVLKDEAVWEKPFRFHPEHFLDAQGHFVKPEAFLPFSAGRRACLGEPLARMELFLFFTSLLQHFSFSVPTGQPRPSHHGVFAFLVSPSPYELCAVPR
# T7 sequence (P33261 whole entry): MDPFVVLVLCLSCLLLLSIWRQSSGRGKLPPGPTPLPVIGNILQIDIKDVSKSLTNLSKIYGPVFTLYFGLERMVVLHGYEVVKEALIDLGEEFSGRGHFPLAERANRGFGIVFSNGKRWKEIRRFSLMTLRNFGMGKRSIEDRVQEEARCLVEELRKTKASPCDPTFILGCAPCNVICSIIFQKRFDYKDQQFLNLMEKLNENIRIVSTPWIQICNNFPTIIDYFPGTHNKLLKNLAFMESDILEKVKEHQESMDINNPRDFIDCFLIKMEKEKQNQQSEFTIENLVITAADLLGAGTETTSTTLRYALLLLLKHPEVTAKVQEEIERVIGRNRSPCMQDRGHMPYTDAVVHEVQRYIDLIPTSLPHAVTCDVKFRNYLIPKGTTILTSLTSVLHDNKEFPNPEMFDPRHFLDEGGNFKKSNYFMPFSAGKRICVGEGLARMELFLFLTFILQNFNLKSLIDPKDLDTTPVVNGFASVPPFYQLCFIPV
SMILES,Phase II metabolism [1],metabolic reactions (metabolite IDs) identified [1],number of metabolites tentatively identified [1],"Plasma protein binding, class in words [2]","PPB, % ([2]; 30 min, 37 °C, ultrafiltration) [%]","fraction unbound at 30 min, 0.5 µM [3]","monoamine uptake inhibition, relative potency at transporters [4]",metabolite detection in pHLS9 [5],metabolite detection in HepaRG incubations (HepaRG cells),one-step metabolite detected in CYP2D6 incubation (CYP2D6),one-step metabolite detected in CYP2E1 incubation (CYP2E1),one-step metabolite detected in CYP2A6 incubation (CYP2A6),one-step metabolite detected in CYP2C9 incubation (CYP2C9),one-step metabolite detected in CYP3A4 incubation (CYP3A4),one-step metabolite detected in CYP2C8 incubation (CYP2C8),one-step metabolite detected in CYP2C19 incubation (CYP2C19),one-step metabolite detected in CYP3A5 incubation (CYP3A5),one-step metabolite detected in CYP2B6 incubation (CYP2B6),one-step metabolite detected in CYP1A2 incubation (CYP1A2),one-step metabolite detected in FMO3 incubation [6]
"CCCC(C(=O)c1ccc(OC)cc1)N1CCCC1 (stereo not drawn) [Compound 4MeO-αP-VP, 4’-methoxy-α-pyrrolidinovalerophenone]",O-sulfation (MO3.9) and O-glucuronidation (MO3.10) after O-demethylation,"hydroxylation (MO3.1, MO3.3), O-demethylation (MO3.2), N-oxidation (MO3.4), lactam formation (MO3.5), O-demethylation + aromatic hydroxylation (MO3.6), hydroxylation + N-oxidation (MO3.7), and O-demethylation + dihydroxylation at the pyrrolidine ring (MO3.8)",10,moderate,61,0.39,greater potency in dopamine than serotonin transporters,,,,,,,,,,,,,
CCCC(C(=O)c1ccc(OC2OC(C(=O)O)C(O)C(O)C2O)cc1)N1CCCC1 (stereo not drawn) [MO3.10],,,,,,,,could not be detected,observed in HepaRG incubations,,,,,,,,,,,
CCC(C(=O)c1ccc(SC)cc1)N(O)CC (stereo not drawn) [MT1.4],,,,,,,,,only detected in HepaRG incubations,+,-,-,-,+,-,-,+,-,+,+
